The values below come from US20240148819A1, “COMPOUNDS FOR USE IN THE TREATMENT OF SINUSITIS, PNEUMONIA OR OTITIS” (PHARMA HOLDINGS AS, priority 2021, published 2024).

Data set [1] relates to HeLa cells. Description: Parallel test without virus for residual cytotoxicity (Example 7). It counts as cell-based, human. The following applies: 3% LTX-109 (w/v) or 0.25% SDS, after dilution (50 μl in 5 ml), no virus.
Experimental: (§6) A parallel test where the same procedure was carried out in the absence of virus was included to determine any residual cytotoxic effect of the formulation on the assay cells.
For data set [2], the system named is Influenza A virus (IAV; A/WSN/33). In kind it is cell-based.
For the next data set, the system named is Mycoplasma pneumoniae. The protocol:
Two library strains of Mycoplasma pneumoniae were used. These strains were stored at GR Micro Ltd. and maintained, with minimal sub-culture, deep frozen at −70° C. as a dense suspension in a high protein matrix of undiluted horse serum.
MIC determination was carried out using a broth microdilution method in Mycoplasma Broth Base (Oxoid Ltd, Hampshire, UK), prepared according to the manufacturer's instructions.

Data set [3] relates to HeLa cells. The conditions noted are these: 1% LTX-109 (w/v) or 0.25% SDS, after filtration, no virus, dilution showing cytotoxicity.
Experimental: as §6
The next data set deals with Hep2 cells. The following applies: 1 h, after filtration, no virus.
The subject of a further data set is Haemophilus influenzae. The protocol: (§1) Bacterial and fungal isolates used in this study were from various sources worldwide stored at GR Micro Ltd. and maintained, with minimal sub-culture, deep frozen at −70° C. as a dense suspension in a high protein matrix of undiluted horse serum.
(§2) Minimum inhibitory concentration (MIC) of LTX-109 was determined using the following microbroth dilution methods for antimicrobial susceptibility testing published by the Clinical and Laboratory Standards Institute (CLSI, formerly NCCLS): • M7-A6 Vol. 23 No. 2 Jan. 2003 Methods for Dilution Antimicrobial Susceptibility Tests for Bacteria that Grow Aerobically; Approved Standard-Sixth Edition. National Committee for Clinical Laboratory Standards. • M100-S15 Vol. 25 No 1. January 2005 Performance Standards for Antimicrobial Susceptibility Testing; Fifteenth Informational Supplement. Clinical and Laboratory Standards Institute • M11-A6 Vol. 24 No. 2 Methods for Antimicrobial Susceptibility Testing of Anaerobic Bacteria; Approved Standard-Sixth Edition. National Committee for Clinical Laboratory Standards. • M27-A2 Vol. 22 No. 15 Reference Method for Broth Dilution Antifungal Susceptibility Testing of Yeasts; Approved Standard-Second Edition. National Committee for Clinical Laboratory Standards. • M38-A Vol. 22 No. 16 Reference Method for Broth Dilution Antifungal Susceptibility Testing of Filamentous Fungi; Approved Standard. National Committee for Clinical Laboratory Standards.
(§3) MIC estimations were performed using wet plates, containing the LTX-109, prepared at GR Micro Ltd.
(§4) Following normal practice all the plates containing Mueller-Hinton broth were prepared in advance, frozen at −70° C. on the day of preparation and defrosted on the day of use. Fungal, Haemophilus and anaerobic MIC determinations were all performed in plates prepared on the same day.

The test system of another data set is Candida krusei. The conditions noted are these: Candida krusei - ATCC6258 - reference strain. The protocol:
as §1, §2, §3
(§5) Yeast and filamentous fungal MIC were performed in MOPS buffered RPMI 1640 medium (MOPS buffer obtained from Sigma Aldrich Ltd., RPMI 1640 obtained from Invitrogen Ltd, Paisley, Scotland). The yeast inocula were in the range 7.5×10^2-4×10^3 CFU/mL and the filamentous fungi approximately 8×10^3-1×10^5 CFU/mL.
as §4

Another data set concerns Candida albicans. The protocol:
as §1, §2, §3, §5, §4

Another data set concerns Candida parapsilosis. The following applies: Candida parapsilosis - ATCC90018 - reference strain. The protocol: as §1, §2, §3, §5, §4
For a further data set, the system named is Candida tropicalis. The conditions noted are these: Candida tropicalis - ATCC750 - reference strain. The protocol: as §1, §2, §3, §5, §4
The next data set relates to Aspergillus niger. The conditions noted are these: Aspergillus niger - G. R. Micro collection. The protocol:
as §1, §2, §3, §5, §4

Values after ≈ are worked out from the molar mass of the structure shown. Values joined by “and” are separate entries in the source; they are usually repeats but may differ in a detail not shown here. Equal values may be shown once. Read-outs that look alike come from different tables or passages of the source.

Experimental for Hep2 cells: as §6

On to `CC(C)(C)c1cc(C(C)(C)C)c2[nH]c(C(C)(C)C)c(CC(NC(=O)C(N)CCCNC(=N)N)C(=O)NC(CCCNC(=N)N)C(=O)NCCc3ccccc3)c2c1` (centres unmarked) [LTX-109], for which the Cytotoxicity entry in the data set with HeLa cells [1] and in the data set with HeLa cells [3] was “Neat” throughout. Moreover, the Log in data set [2] turned out to be 1.20. In addition, in data set [2], the Percentage is 99.9% and 99.969%. In addition, the MIC in the data set with Mycoplasma pneumoniae (one of the library strains of Mycoplasma pneumoniae) is listed as 32 mg/L (≈ 40.6 µM); against Mycoplasma pneumoniae (the other of the library strains of Mycoplasma pneumoniae), 16 mg/L (≈ 20.3 µM); against Haemophilus influenzae (Haemophilus influenzae - β-lactamase negative clinical isolate), 8 mg/L (≈ 10.2 µM); in the data set on Haemophilus influenzae (Haemophilus influenzae - β-lactamase negative, ampicillin resistant), 8 mg/L (≈ 10.2 µM); against Haemophilus influenzae (Haemophilus influenzae - β-lactamase positive clinical isolate) it was 8 mg/L (≈ 10.2 µM); in the data set on Candida krusei it was 4 mg/L (≈ 5.08 µM). The MIC in the data set on Candida albicans (Candida albicans - ATCC24433 - reference strain) is recorded as 8 mg/L (≈ 10.2 µM); in the data set on Candida albicans (Candida albicans - ATCC90028 - reference strain), 8 mg/L (≈ 10.2 µM); in the data set with Candida parapsilosis, 16 mg/L (≈ 20.3 µM); with Candida tropicalis, 4 mg/L (≈ 5.08 µM); in the data set on Aspergillus niger, 8 mg/L (≈ 10.2 µM). In addition, the “With Filtration (cytotoxicity)” value in the data set on Hep2 cells (0.1% LTX-109 (w/v)) is given as “No cytotoxicity”; in the data set on Hep2 cells (1% LTX-109 (w/v)) it was “Up to 10^−1”.
